Data from patent US20250325553A1, “METHODS OF TREATING CANCER” (FOGHORN THERAPEUTICS INC., priority 2022, published 2025).
Like-named read-outs stand apart in the source and are kept apart here.

How the values were obtained:
[1] = Phase 1 dose escalation clinical trial, preliminary pharmacokinetics; type: in vivo; conditions: preliminary PK analysis
Experimental: (§1) A Phase 1 dose escalation clinical trial of Compound A is conducted. The trial is primarily intended to determine the maximum tolerated dose (MTD) and/or recommended phase 2 dose of the compound when administered orally to subjects with metastatic uveal melanoma.
(§2) In this ongoing study, Compound A has been administered at dose levels of 2.5 mg once a day (QD), 5 mg QD, 7.5 mg QD, and 10 mg QD to 17 subjects with metastatic uveal melanoma.

[2] = test system: subjects with metastatic uveal melanoma; assay: Phase 1 dose escalation clinical trial, dose limiting toxicity; type: in vivo; conditions: one subject treated at the 7.5 mg dose; improved with a dose hold
Experimental: as §1, §2

[3] = test system: metastatic uveal melanoma; assay: Phase 1 dose escalation clinical trial, tumor response; type: in vivo, human; conditions: 2.5-10 mg QD oral, 17 subjects with metastatic uveal melanoma
Experimental: as §1, §2

[4] = Population PK model of orally administered Compound A patient data; type: in vivo, human
Experimental: A population PK model based on orally administered Compound A dosing data in a total of 10 patients with metastatic uveal melanoma (UM) and advanced hematologic malignancies (e.g., acute myeloid leukemia (AML)) was performed.
Nonlinear mixed-effects models were fitted to concentration vs. time data of FHD-286. Various compartmental models with linear elimination (1-, 2- and 3-compartment), absorption models, structures of omega on clearances, volumes and absorption parameters (diagonal and block) were developed to assess the PK of Compound A.
Overall, a two-compartment model with linear elimination, a zero-order oral absorption, and a lag time of absorption adequately characterized the concentration-time profiles of Compound A.
Exploratory analysis of covariate effects was performed with appropriate plots presenting relationships between the ETAs (e.g., values reflecting the difference between and individual's parameter value and that of the population) of PK parameters to identify any remaining covariate trends. […] Therefore a “Multiple Dose Effect” on CL was included in the model to account for this change over time.
No other covariates were included as part of the model.

For `COC[C@H](NC(=O)c1ccn(S(C)(=O)=O)c1)C(=O)Nc1nc(-c2cccc(N3C[C@@H](C)O[C@@H](C)C3)n2)cs1` [Compound A, N-(1-((4-(6-(2,6-dimethylmorpholino)pyridin-2-yl)thiazol-2-yl)amino)-3-methoxy-1-oxopropan-2-yl)-1-(methylsulfonyl)-1H-pyrrole-3-carboxamide], the half-life ([1]; oral 2.5, 5, 7.5, 10 mg QD, subjects with metastatic uveal melanoma) was “long half-life”, the “plasma concentrations of the compound” value ([1]; oral 2.5-10 mg QD dose levels) was “increase with increasing dose” and the dose limiting toxicity [2] was “Grade 3 keratitis”. The tumor response [3] was “Stable disease and reductions in tumor burden”, the “clearance (CL) over time” value ([4]; after multiple doses) was “reduction in clearance” and the “Vc, Estimate” value ([4]; final PK model parameter) was 54.6 L. For the same molecule, the “Tlag, Estimate” value ([4]; final PK model parameter, lag time of absorption) was 0.452 h, the “Dur, Estimate” value ([4]; final PK model parameter, zero-order oral absorption, two-compartment model, 10 patients (UM, AML)) was 1.77 h and the clearance ([4]; human, in vivo, oral, final PK model parameter, linear elimination, read-out: CL, Estimate (converted)) was 67.8 mL/min. It also gave a clearance ([4]; human, in vivo, oral, final PK model parameter, read-out: CLp, Estimate (converted)) of 510 mL/min and a Vd ([4]; human, in vivo, oral, final PK model parameter, read-out: Vd, Estimate) of 165 L.
